{
  "source": "patent US20250090437A1",
  "about": "“COSMETIC COMPOUNDING AGENT, COSMETIC AND PRODUCTION METHOD THEREOF” (MIYOSHI OIL & FAT CO., LTD., priority 2019, published 2025)",
  "key": {"[1]": {"assay": "Water retention property test 3 (long term)", "assay_type": "physicochemical", "conditions": "80 wt % aqueous solution, 40° C. and 25% RH", "protocol": "In a water retention property test 3, an 80 wt % aqueous solution of each of the compounds C8, C11, C62, C63 and C64 was prepared, followed by using a Karl Fischer moisture meter to confirm that a moisture rate was 20.0 wt %. Next, 1.0 g of each of these samples was added to a screw tube, and this screw tube, while remaining unsealed, was then left to stand still in a thermo-hygrostat set to 40° C. and 25% RH. […] In addition, the water retention property was evaluated by calculating an amount of moisture reduction per hour (mg/h) based on each amount of moisture reduction (mg)."}, "[2]": {"assay": "Affinity to hair (contact angle)", "conditions": "50 wt % aqueous solution; condition B (hair iron, 160° C.)"}, "[3]": {"assay": "Sensory evaluation on healthy hair after using organic ammonium salt", "set-up": "species or system human", "conditions": "healthy hair, 80 wt % aqueous solution"}, "[4]": {"assay": "Sensory evaluation on damaged hair after using shampoo agent containing organic ammonium salt", "set-up": "species or system human", "conditions": "shampoo agent containing the compound; treated 10 times", "protocol": "(§1) Next, the mixture was cooled to a temperature of 30° C. or lower, and a purified water of an evaporated amount was then added thereto so that the whole hair treatment composition would be 100% by mass, followed by uniformly mixing them so as to obtain a hair treatment composition(s). The pH level of the hair treatment composition was adjusted to pH 6.0 by adding a citric acid or sodium hydroxide.\nThe damaged hair was repeatedly treated 10 times in a similar manner as 3-1; evaluated were a cohesiveness of the hair, surface smoothness of the hair and waviness of the hair after performing air drying."}, "[5]": {"assay": "Sensory evaluation on healthy hair after using shampoo agent containing organic ammonium salt", "set-up": "species or system human", "conditions": "shampoo agent containing 3.0% by mass of the compound; treated 10 times", "protocol": "as §1\nAbout 5 g of the healthy hair was taken and dipped into 350 ml of a seven-time dilute aqueous solution of each of the abovementioned hair treatment compositions (shampoo agents) at 35 to 40° C. so as to be washed. The healthy hair was then subjected to a rinsing treatment five times using 500 ml of a warm water of 35 to 40° C., followed by drying the same at 80° C., and then performing air drying at 25° C. Such series of treatment involving hair washing, rinsing and drying was repeated 10 times to then evaluate a cohesiveness of the hair, a moist feeling of the hair, a gloss of the hair, a surface smoothness of the hair and a non-stickiness on the surface of the hair, after performing air drying."}, "[6]": {"assay": "Water retention property and adherability with respect to healthy hair", "set-up": "species or system human"}, "keratin": {"test_system": "keratin", "assay": "Keratin adherability", "conditions": "1 g keratin in 2 g of 50 wt % aqueous solution, 25° C., 24 hours", "protocol": "Here, 1 g of a powdery keratin (by Tokyo Chemical Industry Co., Ltd.) (pre-test keratin) was added to 2 g of a 50 wt % aqueous solution of each of the compounds B11, B23, B26 and B27, followed by performing stirring at 25° C. for 24 hours. After stirring, filtration was performed, and a powdery keratin obtained was then dried so as to obtain a keratin that had been treated (post-test keratin).\nA rate of compound adhesion to keratin was calculated with the following formula."}},
  "data": [
    {"smiles": "OCC(O)CO", "note": "[Compound A52, glycerin, reference compound]", "values": [
      {"measurement": "Amount of moisture reduction in 120 to 144 h", "setting": "[1]; unsealed", "value": 29.4, "unit": "mg"},
      {"measurement": "Amount of moisture reduction in 144 to 168 h", "setting": "[1]; unsealed", "value": 30.0, "unit": "mg"},
      {"measurement": "Amount of moisture reduction in 168 to 192 h", "setting": "[1]; unsealed", "value": 13.1, "unit": "mg"},
      {"measurement": "Moisture rate after 144 h", "setting": "[1]; unsealed", "value": 5.4, "unit": "%"},
      {"measurement": "Moisture rate after 168 h", "setting": "[1]; unsealed", "value": 1.9, "unit": "%"},
      {"measurement": "Moisture rate after 192 h", "setting": "[1]; unsealed", "value": 0.3, "unit": "%"},
      {"measurement": "Amount of moisture reduction per hour", "setting": "[1]; 120~144 h", "value": 1.2, "unit": "mg/h"},
      {"measurement": "Amount of moisture reduction per hour", "setting": "[1]; 144~168 h", "value": 1.3, "unit": "mg/h"},
      {"measurement": "Amount of moisture reduction per hour", "setting": "[1]; 168~192 h", "value": 0.5, "unit": "mg/h"},
      {"measurement": "Contact angle of water droplet on treated hair", "setting": "[2]", "value": "not indifferent from that of the untreated product"},
      {"measurement": "After air drying: Cohesiveness of hair", "setting": "[3]", "value": "Δ~X"},
      {"measurement": "After air drying: Elasticity/Resilience", "setting": "[3]", "value": "Δ~X"},
      {"measurement": "After air drying: Finger-combing capability", "setting": "[3]", "value": "Δ~X"},
      {"measurement": "After air drying: Flexibility", "setting": "[3]", "value": "Δ~X"},
      {"measurement": "After air drying: Gloss of hair", "setting": "[3]", "value": "Δ~X"},
      {"measurement": "After air drying: Moist feeling", "setting": "[3]", "value": "Δ~X"},
      {"measurement": "After air drying: Non-stickiness of hair surface", "setting": "[3]", "value": "Δ~X"},
      {"measurement": "After air drying: Smoothness of hair surface", "setting": "[3]", "value": "Δ~X"},
      {"measurement": "After air drying: Texture", "setting": "[3]", "value": "Δ~X"},
      {"measurement": "After air drying: Volume increase", "setting": "[3]", "value": "Δ~X"},
      {"measurement": "When washing: Finger-combing capability", "setting": "[3]; versus uncoated hair bundle", "value": "◯"},
      {"measurement": "Sensory evaluation of damaged hair after shampoo agent (cohesiveness, surface smoothness, waviness)", "setting": "[4]", "value": "inferior surface smoothness"},
      {"measurement": "Sensory evaluation of healthy hair after shampoo agent (cohesiveness, moist feeling, gloss, smoothness, non-stickiness)", "setting": "[5]", "value": "inferior in general"},
      {"measurement": "Post-test moisture rate", "setting": "[6]; healthy hair immersed 60 min in 80 wt % aqueous solution, after 24 hours at 40° C., 35 to 40% RH, pre-test 7.6%", "value": 5.3, "unit": "%"},
      {"measurement": "Compound adhesion rate", "setting": "[6]; healthy hair immersed 60 min in 80 wt % aqueous solution, listed as B26", "value": 1.0, "unit": "%"},
      {"measurement": "Rate of reduction in moisture", "setting": "[6]; healthy hair, 80 wt % aqueous solution, 24 hours at 40° C., 35 to 40% RH", "value": 30, "unit": "%"},
      {"measurement": "Rate of compound adhesion to keratin", "setting": "keratin", "value": 11.0, "unit": "%"}
    ]}
  ]
}
